Test results taken from US20120082658A1, “Methods for the Treatment of Allergic Diseases” (VentiRx Pharmaceuticals, Inc., priority 2010, published 2012).

Biological target: T1, human TLR8 (Homo sapiens, UniProt Q9NR97)
T1 construct: expressed in transfected cells; host or cells: HEK293
T1 sequence (Q9NR97 27-1041): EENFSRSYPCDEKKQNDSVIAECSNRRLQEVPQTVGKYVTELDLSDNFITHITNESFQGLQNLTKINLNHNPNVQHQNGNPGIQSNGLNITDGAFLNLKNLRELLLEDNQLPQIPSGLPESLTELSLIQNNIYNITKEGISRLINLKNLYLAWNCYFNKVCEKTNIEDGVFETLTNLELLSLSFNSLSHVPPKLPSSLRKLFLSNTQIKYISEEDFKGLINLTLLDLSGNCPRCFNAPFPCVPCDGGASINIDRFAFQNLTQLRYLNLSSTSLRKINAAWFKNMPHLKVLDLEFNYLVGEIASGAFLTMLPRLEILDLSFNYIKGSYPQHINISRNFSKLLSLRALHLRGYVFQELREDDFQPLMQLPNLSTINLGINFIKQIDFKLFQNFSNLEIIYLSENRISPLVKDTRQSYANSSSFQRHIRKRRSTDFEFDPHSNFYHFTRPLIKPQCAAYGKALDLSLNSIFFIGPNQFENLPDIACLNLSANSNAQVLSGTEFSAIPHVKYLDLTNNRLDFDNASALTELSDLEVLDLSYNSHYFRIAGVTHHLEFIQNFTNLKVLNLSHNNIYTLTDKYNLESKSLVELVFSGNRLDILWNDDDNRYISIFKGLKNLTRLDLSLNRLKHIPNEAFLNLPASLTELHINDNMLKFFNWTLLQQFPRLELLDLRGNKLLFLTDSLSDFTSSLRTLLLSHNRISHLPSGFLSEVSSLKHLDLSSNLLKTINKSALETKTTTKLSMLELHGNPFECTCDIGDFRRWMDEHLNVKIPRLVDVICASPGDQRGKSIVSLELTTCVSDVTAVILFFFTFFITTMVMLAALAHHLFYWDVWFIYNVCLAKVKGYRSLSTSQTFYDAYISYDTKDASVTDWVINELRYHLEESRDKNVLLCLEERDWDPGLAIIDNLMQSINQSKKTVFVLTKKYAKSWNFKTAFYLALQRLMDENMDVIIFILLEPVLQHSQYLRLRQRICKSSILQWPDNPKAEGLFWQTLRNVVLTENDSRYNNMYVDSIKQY
Assay: HEK293 cells transfected with human TLR8, NF-κB driven reporter
Assay type: cell-based
Details: read-out: half maximal effective concentration (EC50), activation of TLR8
Description: FIG. 8 is two graphs depicting the potency and selectivity of VTX-378 for TLR8. The half-maximal effective concentration (EC50) for VTX-378 activation of TLR8 and TLR7 was assessed in peripheral blood mononuclear cells (PBMCs) by the amount of secreted TNFα (A) and by the activity of NF-κB (B) from 15 healthy donors and also in HEK293 cells transfected with various human TLRs.
Preclinical studies were performed with VTX-378, the active pharmaceutical ingredient in VTX-1463. The specificity of VTX-378 for human TLR8 relative to other TLRs was assessed in transfected Human Embryonic Kidney 293 (HEK293) cells engineered to express individual TLRs (2-9) via transfection, and assessed using an NF-κB driven reporter system. […] The pharmacologic effects of VTX-378 were characterized in vitro using isolated human peripheral blood mononuclear cells (PBMCs).

CCCN(CCC)C(=O)C1=Cc2ccc(-c3ccc(C(=O)N4CCCC4)cc3)cc2N=C(N)C1 [VTX-378]
EC50: ~100 nM
